Measurements reported in US12459922B2 (Gilead Sciences, Inc., priority 2022, dated 2025).

The compounds below were run on endogenous cellular STAT1 (phosphorylated at Tyr701) in NCI-H1373 cells (assay: Phospho-STAT1 (Tyr701) LANCE Ultra TR-FRET Detection Assay). Settings: Homo sapiens, NCI-H1373, 48 h, phospho-STAT1 (Tyr701) induction, read-out: NH1373 pSTAT1 EC50.
Format: cell-based

Compared with `Cc1nnc([C@@H](CCCn2ccc3cc(-c4ncc(C(F)(F)F)cn4)c(F)cc3c2=O)Nc2cn[nH]c(=O)c2C(F)(F)F)o1` [Example 169, 7-fluoro-2-[(4R)-4-(5-methyl-1,3,4-oxadiazol-2-yl)-4-[[6-oxo-5-(trifluoromethyl)-1H-pyridazin-4-yl]amino]butyl]-6-[5-(trifluoromethyl)pyrimidin-2-yl]isoquinolin-1-one], `Cc1nnc([C@@H](CCCn2ccc3cc(-c4ncc(C(F)(F)F)cn4)c(F)c(F)c3c2=O)Nc2cn[nH]c(=O)c2C(F)(F)F)o1` [Example 474, 7,8-difluoro-2-[(4R)-4-(5-methyl-1,3,4-oxadiazol-2-yl)-4-[[6-oxo-5-(trifluoromethyl)-1H-pyridazin-4-yl]amino]butyl]-6-[5-(trifluoromethyl)pyrimidin-2-yl]isoquinolin-1-one] is 4.2-fold lower in EC50: 0.0619 µM for the first, 0.0148 µM for the second. The second is the more potent here.

`Nc1nc(-c2cc3ncn(C[C@@H]4CCC[C@H](Nc5cn[nH]c(=O)c5C(F)(F)F)C4)c(=O)c3cc2F)ncc1C(F)F` [Example 236] and `Nc1nc(-c2cc3ncn(CCC[C@@H](Nc4cn[nH]c(=O)c4C(F)(F)F)C4CC4)c(=O)c3cc2F)ncc1C(F)F` [Example 462, (R)-7-(4-amino-5-(difluoromethyl)pyrimidin-2-yl)-3-(4-cyclopropyl-4-((6-oxo-5-(trifluoromethyl)-1,6-dihydropyridazin-4-yl)amino)butyl)-6-fluoroquinazolin-4(3H)-one] are within 1.5-fold of each other in EC50: 0.0322 µM for the first, 0.0276 µM for the second.

Going from `C[C@@H](CCCn1cnc2cc(-c3ncc(C(F)(F)F)c(N4CCOCC4)n3)c(F)cc2c1=O)Nc1cn[nH]c(=O)c1C(F)(F)F` [Example 201, (S)-6-fluoro-7-(4-morpholino-5-(trifluoromethyl)pyrimidin-2-yl)-3-(4-((6-oxo-5-(trifluoromethyl)-1,6-dihydropyridazin-4-yl)amino)pentyl)quinazolin-4(3H)-one] to `COc1cnc(-c2cc3ncn(CCC[C@H](COC(F)F)Nc4cn[nH]c(=O)c4C(F)(F)F)c(=O)c3cc2F)nc1N` [Example 393, (R)-7-(4-amino-5-methoxypyrimidin-2-yl)-3-(5-(difluoromethoxy)-4-((6-oxo-5-(trifluoromethyl)-1,6-dihydropyridazin-4-yl)amino)pentyl)-6-fluoroquinazolin-4(3H)-one], the EC50 rises from 0.00403 µM to 0.0227 µM (5.6-fold).

Compared with `Nc1nc(-c2ccc3c(=O)n(CCC[C@H](COC(F)F)Nc4cn[nH]c(=O)c4C(F)(F)F)ccc3n2)ccc1C(F)(F)F` [Example 405, (R)-2-(6-amino-5-(trifluoromethyl)pyridin-2-yl)-6-(5-(difluoromethoxy)-4-((6-oxo-5-(trifluoromethyl)-1,6-dihydropyridazin-4-yl)amino)pentyl)-1,6-naphthyridin-5(6H)-one], `O=c1[nH]ncc(N[C@H](CCCn2cnc3nc(-c4ccc(C(F)(F)F)cn4)ccc3c2=O)COC(F)F)c1C(F)(F)F` [Example 404, (R)-3-(5-(difluoromethoxy)-4-((6-oxo-5-(trifluoromethyl)-1,6-dihydropyridazin-4-yl)amino)pentyl)-7-(5-(trifluoromethyl)pyridin-2-yl)pyrido[2,3-d]pyrimidin-4(3H)-one] is 6.2-fold lower in EC50: 0.00967 µM for the first, 0.00157 µM for the second.

Compared with `O=c1[nH]ncc(N[C@H]2CCC[C@@H](Cn3ccc4cc(-c5ncc(C6CC6)cn5)c(F)cc4c3=O)C2)c1C(F)(F)F` [Example 241], `Cn1nc(-c2cc3ccn(C[C@@H]4CCC[C@H](Nc5cn[nH]c(=O)c5C(F)(F)F)C4)c(=O)c3cc2F)cc1C(F)(F)F` [Example 491, 7-fluoro-6-[1-methyl-5-(trifluoromethyl)pyrazol-3-yl]-2-[[(1R,3S)-3-[[6-oxo-5-(trifluoromethyl)-1H-pyridazin-4-yl]amino]cyclohexyl]methyl]isoquinolin-1-one] is 7.9-fold higher in EC50: 0.00638 µM for the first, 0.0505 µM for the second. The first is the more potent here.

Going from `O=c1[nH]ncc(N[C@H](CCCn2cnc3cc(-c4cnc(C(F)(F)F)cn4)c(F)cc3c2=O)COC(F)F)c1C(F)(F)F` [Example 420, (R)-3-(5-(difluoromethoxy)-4-((6-oxo-5-(trifluoromethyl)-1,6-dihydropyridazin-4-yl)amino)pentyl)-6-fluoro-7-(5-(trifluoromethyl)pyrazin-2-yl)quinazolin-4(3H)-one] to `Nc1nc(-c2cc3ncn(CCC[C@H](COC(F)F)Nc4cn[nH]c(=O)c4C(F)(F)F)c(=O)c3cc2F)cnc1C(F)(F)F` [Example 419, (R)-7-(6-amino-5-(trifluoromethyl)pyrazin-2-yl)-3-(5-(difluoromethoxy)-4-((6-oxo-5-(trifluoromethyl)-1,6-dihydropyridazin-4-yl)amino)pentyl)-6-fluoroquinazolin-4(3H)-one], the EC50 rises from 0.00941 µM to 0.0142 µM (1.5-fold).

Compared with `O=c1[nH]ncc(N2C[C@H](F)C[C@H]2CCCn2ccc3cc(-c4ncc(C(F)(F)F)cn4)c(F)cc3c2=O)c1C(F)(F)F` [Example 140, 7-fluoro-2-[3-[(2R,4R)-4-fluoro-1-[6-oxo-5-(trifluoromethyl)-1H-pyridazin-4-yl]pyrrolidin-2-yl]propyl]-6-[5-(trifluoromethyl)pyrimidin-2-yl]isoquinolin-1-one], `O=c1[nH]ncc(N2CC[C@H]2CCCn2ccc3cc(-c4ncc(C(F)(F)F)cn4)c(F)cc3c2=O)c1C(F)(F)F` (single isomer, unassigned) [Example 149] is 150-fold lower in EC50: 0.585 µM for the first, 0.00398 µM for the second. The second is the more potent here.

Going from `Nc1nc(-c2cc3ccn(C[C@@H]4CCC[C@H](Nc5cn[nH]c(=O)c5C(F)(F)F)C4)c(=O)c3c(F)c2F)ncc1C(F)(F)F` [Example 234] to `Nc1nc(-c2cc3ccn(CC[C@H]4CCCC[C@@H]4Nc4cn[nH]c(=O)c4C(F)(F)F)c(=O)c3cc2F)ncc1C(F)(F)F` [Example 451, 6-[4-amino-5-(trifluoromethyl)pyrimidin-2-yl]-7-fluoro-2-[2-[(1R,2S)-2-[[6-oxo-5-(trifluoromethyl)-1H-pyridazin-4-yl]amino]cyclohexyl]ethyl]isoquinolin-1-one], the EC50 rises from 0.00155 µM to 0.00476 µM (3.1-fold). The first is the more potent here.

Compared with `CC[C@@H](CCCn1ccc2cc(-c3ncc(C#N)c(N)n3)c(F)cc2c1=O)Nc1cn[nH]c(=O)c1C(F)(F)F` [Example 70, 4-amino-2-[7-fluoro-1-oxo-2-[(4S)-4-[[6-oxo-5-(trifluoromethyl)-1H-pyridazin-4-yl]amino]hexyl]-6-isoquinolyl]pyrimidine-5-carbonitrile], `[2H]C([2H])([2H])Oc1cnc(-c2cc3ccn(CCC[C@H](C)Nc4cn[nH]c(=O)c4C(F)(F)F)c(=O)c3cc2F)nc1N` [Example 196, 6-[4-amino-5-(trideuteriomethoxy)pyrimidin-2-yl]-7-fluoro-2-[(4S)-4-[[6-oxo-5-(trifluoromethyl)-1H-pyridazin-4-yl]amino]pentyl]isoquinolin-1-one] is 3.6-fold lower in EC50: 0.0221 µM for the first, 0.00613 µM for the second.

Compared with `C[C@H](Nc1cn[nH]c(=O)c1C(F)(F)F)[C@@H](O)CCn1ccc2cc(-c3ncc(C(F)(F)F)cn3)c(F)cc2c1=O` [Example 442, 7-fluoro-2-((3S,4S)-3-hydroxy-4-((6-oxo-5-(trifluoromethyl)-1,6-dihydropyridazin-4-yl)amino)pentyl)-6-(5-(trifluoromethyl)pyrimidin-2-yl)isoquinolin-1(2H)-one], `CCOC[C@@H](CCCn1ccc2cc(-c3ncc(C(F)(F)F)cn3)c(F)cc2c1=O)Nc1cn[nH]c(=O)c1C(F)(F)F` [Example 180, (R)-2-(5-ethoxy-4-((6-oxo-5-(trifluoromethyl)-1,6-dihydropyridazin-4-yl)amino)pentyl)-7-fluoro-6-(5-(trifluoromethyl)pyrimidin-2-yl)isoquinolin-1(2H)-one] is 980-fold lower in EC50: 1.85 µM for the first, 0.00189 µM for the second.

Going from `C[C@@H](CCCn1ccc2cc(-c3nc(N)c4ccccc4n3)c(F)cc2c1=O)Nc1cn[nH]c(=O)c1C(F)(F)F` [Example 363, (S)-6-(4-aminoquinazolin-2-yl)-7-fluoro-2-(4-((6-oxo-5-(trifluoromethyl)-1,6-dihydropyridazin-4-yl)amino)pentyl)isoquinolin-1(2H)-one] to `C[C@@H](CCCn1ccc2cc(-c3ncc4ccsc4n3)c(F)cc2c1=O)Nc1cn[nH]c(=O)c1C(F)(F)F` [Example 292, (S)-7-fluoro-2-(4-((6-oxo-5-(trifluoromethyl)-1,6-dihydropyridazin-4-yl)amino)pentyl)-6-(thieno[2,3-d]pyrimidin-2-yl)isoquinolin-1(2H)-one], the EC50 rises from 0.00328 µM to 0.016 µM (4.9-fold). The first is the more potent here.

Compared with `Nc1nc(-c2cc3ccn(CCC[C@H](CO)Nc4cn[nH]c(=O)c4C(F)(F)F)c(=O)c3cc2F)ccc1C(F)(F)F` [Example 167, 6-[6-amino-5-(trifluoromethyl)pyridin-2-yl]-7-fluoro-2-[(4R)-5-hydroxy-4-[[6-oxo-5-(trifluoromethyl)-1H-pyridazin-4-yl]amino]pentyl]isoquinolin-1-one], `C[C@@H](CCCn1ccc2cc(-c3ccc4ncsc4n3)c(F)cc2c1=O)Nc1cn[nH]c(=O)c1C(F)(F)F` [Example 333, (S)-7-fluoro-2-(4-((6-oxo-5-(trifluoromethyl)-1,6-dihydropyridazin-4-yl)amino)pentyl)-6-(thiazolo[5,4-b]pyridin-5-yl)isoquinolin-1(2H)-one] is 4.9-fold higher in EC50: 0.103 µM for the first, 0.503 µM for the second. The first is the more potent here.

Compared with `C[C@@H](CCCn1ccc2cc(-n3cc(C(F)(F)F)cn3)ccc2c1=O)Nc1cn[nH]c(=O)c1C(F)(F)F` [Example 173, (S)-2-(4-((6-oxo-5-(trifluoromethyl)-1,6-dihydropyridazin-4-yl)amino)pentyl)-6-(4-(trifluoromethyl)-1H-pyrazol-1-yl)isoquinolin-1(2H)-one], `CC[C@@H](CCCn1ccc2cc(-c3ncc(OC(F)F)c(N)n3)c(F)c(F)c2c1=O)Nc1cn[nH]c(=O)c1C(F)(F)F` [Example 361, (S)-6-(4-amino-5-(difluoromethoxy)pyrimidin-2-yl)-7,8-difluoro-2-(4-((6-oxo-5-(trifluoromethyl)-1,6-dihydropyridazin-4-yl)amino)hexyl)isoquinolin-1(2H)-one] is 25-fold lower in EC50: 0.27 µM for the first, 0.0109 µM for the second. The second is the more potent here.

`Nc1nc(-c2cc3ncn(CC[C@H]4CCC[C@@H]4Nc4cn[nH]c(=O)c4C(F)(F)F)c(=O)c3cc2F)ncc1Cl` [Example 449, 7-(4-amino-5-chloropyrimidin-2-yl)-6-fluoro-3-(2-((1R,2S)-2-((6-oxo-5-(trifluoromethyl)-1,6-dihydropyridazin-4-yl)amino)cyclopentyl)ethyl)quinazolin-4(3H)-one] gave an EC50 of 0.00642 µM.
